# Laboratory results taken from publication PMC4467461, “Small-molecule activation of SERCA2a SUMOylation for the treatment of heart failure” (Nature Communications, 2015).
# Tested on: TAC mice
# Assay: Dobutamine contractile response in TAC and sham mice
# Format: in vivo
# Settings: TAC versus sham mice, 3, 6, 10 ng/BW g
# Procedure: TAC mice and sham control. n = 5 (TAC) and n = 3 (sham operated). LVIDd, LV internal diameter during diastole; LVIDs, LV internal diameter during systole; FS, fractional shortening; EF, ejection fraction. (e) SERCA2a protein levels were detected by Western blot analysis. 15 µg of tissue extracts was separated on 7.5% SDS-PAGE gels, transferred to nitrocellulose membrane and blotted with anti-SERCA2a antibody. Band intensity was quantified by Image J software. The amount of GAPDH was used as a normalization control. (f) Dobutamine was infused to test contractile response to β-agonist stimulation in TAC and sham operated animals.
# LV pressure rise rate (+dP/dt max) was measured in response to different dose of dobutamine stimulation. Dose-dependent dobutamine response was blunted in TAC animals. n = 3 mice per each dose. Data are represented as mean ± SEM. * p < 0.05 versus baseline (Student’s t-test).
smiles,measurement,setting,value
CC(CCc1ccc(O)cc1)NCCc1ccc(O)c(O)c1 (centres unmarked) [dobutamine],contractile / chronotropic response (+dP/dt max) to dobutamine,,significantly abrogated
same,contractile / chronotropic response (+dP/dt max) to dobutamine,listed as Dobutamine,blunted
